“Also recorded” adds a separate entry of the source. Like-named read-outs stand apart in the source and are kept apart here. Where a SMILES comes first, the peptide text is derived from it. Where no end group is shown, it is not given here. [ ]: non-standard residue; d: D form. sY = N[C@@H](Cc1ccc(OS(=O)(=O)O)cc1)C(=O)O; pGlu = O=C1CC[C@@H](C(=O)O)N1
Assays:
Cragi-CCKR2 = target: T1, Cragi-CCKR2 (Magallana gigas, UniProt A0A345BJM9); assay: Calcium fluorescence (mobilization) assay, Cragi-CCKR2 in HEK293T cells; assay type: cell-based, Crassostrea gigas; settings: for EC50: HEK293T transiently transfected with Cragi-CCKR2, Fluo-4 calcium response, 37 °C, read-out: EC50 for receptor activation, Cragi-CCKR2
T1 sequence (A0A345BJM9 1-406): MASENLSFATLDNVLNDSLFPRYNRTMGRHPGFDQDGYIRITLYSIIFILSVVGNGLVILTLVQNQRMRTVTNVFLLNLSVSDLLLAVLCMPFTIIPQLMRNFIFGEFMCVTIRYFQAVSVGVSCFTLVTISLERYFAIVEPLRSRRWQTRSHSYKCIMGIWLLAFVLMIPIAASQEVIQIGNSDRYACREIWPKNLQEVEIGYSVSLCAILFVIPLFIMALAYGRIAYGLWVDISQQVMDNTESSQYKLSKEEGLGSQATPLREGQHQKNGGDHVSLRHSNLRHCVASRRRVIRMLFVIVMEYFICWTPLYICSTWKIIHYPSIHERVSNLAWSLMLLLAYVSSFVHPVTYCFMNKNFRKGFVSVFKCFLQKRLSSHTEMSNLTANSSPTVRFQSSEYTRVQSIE
Text: (§1) The CDS of the Cragi-CCKR genes were amplified by PCR (Pfu DNA polymerase, Promega) using gene-specific sense primers harbouring a Kozak consensus sequence and antisense primers (Supplementary Table 3). Ten nanogram of plasmid DNA (Pal 17.3 vector, Evrogen) from a C. gigas “all developmental stages and adult central nervous system” directional and normalized cDNA library[62] was used as template. The resulting PCR products were directionally cloned into the pcDNA3.1 expression vector (Invitrogen). The correct insertion of the PCR products was confirmed by sequencing. Human Embryonic Kidney (HEK293T) cells were transiently transfected with the Cragi-CCKR/pcDNA3.1 constructs using Fugene HD (Promega) according to the manufacturer’s instructions. As a first step, co-transfection was done with a pcDNA3.1 expression construct for the human Gα16 subunit, a promiscuous G protein that can direct intracellular signalling of GPCRs to the release of calcium via the phospholipase Cβ pathway, regardless of the endogenous G protein coupling of the receptor[63]. To assess receptor activity independent of Gα16, calcium responses were measured in cells expressing only the Cragi-CCKRs. Cells for negative control experiments were transfected with empty pcDNA3.1 and Gα16/pcDNA3.1 constructs.
(§2) Activation of the Cragi-CCKRs by candidate peptide ligands was monitored using a fluorescence-based calcium mobilization assay. Briefly, transfected HEK293T cells were loaded with Fluo-4 Direct (Invitrogen) plus probenecid (qsp 2.5 mM final in the cell) (Molecular Probes) for 1 hour (45 min at 37 °C and 15 min at room temperature). Excitation of the fluorophore was done at 488 nm. The calcium response was measured for 2 min at 525 nm using a FLEXstation 3 (Molecular Devices) at 37 °C. Data were analysed using SoftMax Pro (Molecular Devices). Candidate ligands were first tested at a final concentration of 10^−5 M. Concentration-response measurements of activating ligands were conducted in quadruplicate and for at least three independent experiments. Half maximal effective concentrations (EC50 values) were calculated from concentration-response curves that were constructed using nonlinear regression analysis with a sigmoidal dose-response equation using Prism 5.0 (GraphPad software, USA).

oyster hindgut = assay: Myotropic bioassay on oyster hindgut; set-up: species or system Crassostrea gigas; settings: for Duration, Relaxation (R) / Duration, Contraction (C) / Duration, Period (P) / Amplitude (A): mean ± SEM of four experiments, SEM; for Minimal threshold concentration inducing hindgut contraction: isolated oyster hindgut, perfused muscle chamber
Protocol: The myotropic bioassay was performed using oyster's hindgut according to the protocol described earlier for the cuttlefish oviduct. The muscle chamber was perfused at a flow rate of 0.67 mL.min^-1. Increasing concentrations of synthetic peptides (Cragi-CCK1, [[…], [[…], [[…]) were injected in the perfusing flow using a three-way valve to avoid mechanical stress. The flow of the samples into the muscle chamber was traced by adding phenol red.

Cragi-CCKR1 = target: T2, Cragi-CCKR1 (Magallana gigas, UniProt A0A345BJM8); assay: Calcium fluorescence (mobilization) assay, Cragi-CCKR1 in HEK293T cells; assay type: cell-based, Crassostrea gigas; settings: for EC50: HEK293T transiently transfected with Cragi-CCKR1, Fluo-4 calcium response, 37 °C, read-out: EC50 for receptor activation, Cragi-CCKR1
T2 sequence (A0A345BJM8 1-408): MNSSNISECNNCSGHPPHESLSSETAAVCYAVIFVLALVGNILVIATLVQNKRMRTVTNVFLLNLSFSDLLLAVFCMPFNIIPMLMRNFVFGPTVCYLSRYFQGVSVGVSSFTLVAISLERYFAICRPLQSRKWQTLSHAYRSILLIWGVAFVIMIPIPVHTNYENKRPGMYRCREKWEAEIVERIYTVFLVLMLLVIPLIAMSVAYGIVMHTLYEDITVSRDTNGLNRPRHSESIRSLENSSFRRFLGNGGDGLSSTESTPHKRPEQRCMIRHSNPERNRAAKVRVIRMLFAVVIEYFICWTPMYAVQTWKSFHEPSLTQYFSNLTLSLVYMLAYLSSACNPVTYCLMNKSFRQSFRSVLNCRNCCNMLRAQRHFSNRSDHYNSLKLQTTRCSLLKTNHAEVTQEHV
Text: as §1, §2

[1] = concentration-response in quadruplicate, at least three independent experiments
[2] = folds more potent than [Y^8S] Cragi-CCK1, calcium assay
[3] = times more potent than non-sulphated Cragi-CCK1, calcium assay
[4] = high concentrations, HEK293T, Fig. 4

CC(C)C[C@H](NC(=O)CNC(=O)[C@H](Cc1ccc(O)cc1)NC(=O)[C@H](CC(=O)O)NC(=O)[C@H](Cc1ccc(O)cc1)NC(=O)[C@H](CC(=O)O)NC(=O)[C@H](Cc1c[nH]c2ccccc12)NC(=O)[C@H](C)NC(=O)CNC(=O)[C@@H]1CCC(=O)N1)C(=O)NCC(=O)NCC(=O)NCC(=O)N[C@@H](CCCNC(=N)N)C(=O)N[C@@H](Cc1ccccc1)C(N)=O [Cragi-CCK1] ([pGlu]GAWDYDYGLGGGRF-NH2)
EC50 (Cragi-CCKR2; [1]): 462 ± 67 nM | Duration, Relaxation (R) (oyster hindgut; Peptide 10^−7M, no peptide 10,48 ± 0,78): 16,03 ± 1,13 min | Duration, Contraction (C) (oyster hindgut; Peptide 10^−7M, no peptide 20,18 ± 0,33): 35,23 ± 1,32 min | Duration, Period (P) (oyster hindgut; Peptide 10^−7M, no peptide 30,67 ± 0,67): 51,27 ± 0,15 min | Amplitude (A) (oyster hindgut; Peptide 10^−7M, no peptide 0,161 ± 0,038): 0,203 ± 0,038 g | Minimal threshold concentration inducing hindgut contraction (oyster hindgut): 10^−7 M | EC50 (Cragi-CCKR1; [1]): 195 ± 20 nM

N=C(N)NCCC[C@H](NC(=O)CNC(=O)CNC(=O)CNC(=O)[C@H](Cc1ccc(OS(=O)(=O)O)cc1)NC(=O)[C@H](CC(=O)O)NC(=O)[C@@H](N)Cc1ccccc1)C(=O)N[C@@H](Cc1c[nH]c2ccccc12)C(N)=O [[Y^3S] Cragi-CCK2] (H-FD[sY]GGGRW-NH2)
EC50 (Cragi-CCKR2; values given in M): > 100000 nM

CC(C)C[C@H](NC(=O)CNC(=O)[C@H](Cc1ccc(OS(=O)(=O)O)cc1)NC(=O)[C@H](CC(=O)O)NC(=O)[C@H](Cc1ccc(OS(=O)(=O)O)cc1)NC(=O)[C@H](CC(=O)O)NC(=O)[C@H](Cc1c[nH]c2ccccc12)NC(=O)[C@H](C)NC(=O)CNC(=O)[C@@H]1CCC(=O)N1)C(=O)NCC(=O)NCC(=O)NCC(=O)N[C@@H](CCCNC(=N)N)C(=O)N[C@@H](Cc1ccccc1)C(N)=O [[Y^6S-Y^8S] Cragi-CCK1] ([pGlu]GAWD[sY]D[sY]GLGGGRF-NH2)
EC50 (Cragi-CCKR2; [1]): 1.98 ± 0.25 nM | Potency relative to mono-sulphated [Y^8S] Cragi-CCK1, Cragi-CCKR2 (Cragi-CCKR2; [2]): 5 folds | Duration, Relaxation (R) (oyster hindgut; Peptide 10^−9M, no peptide 11,80 ± 1,63): 23,82 ± 1,35 min | Duration, Contraction (C) (oyster hindgut; Peptide 10^−9M, no peptide 18,76 ± 1,07): 38,57 ± 3,53 min | Duration, Period (P) (oyster hindgut; Peptide 10^−9M, no peptide 30,57 ± 2,22): 62,39 ± 2,50 min | Amplitude (A) (oyster hindgut; Peptide 10^−9M, no peptide 0,103 ± 0,006): 0,153 ± 0,016 g | Minimal threshold concentration inducing hindgut contraction (oyster hindgut): 10^−9 M | EC50 (Cragi-CCKR1; [1]): 1.1 ± 0.25 nM | Potency relative to mono-sulphated [Y^8S] Cragi-CCK1, Cragi-CCKR1 (Cragi-CCKR1; [2]): 2 folds

CC(C)C[C@H](NC(=O)CNC(=O)[C@H](Cc1ccc(O)cc1)NC(=O)[C@H](CC(=O)O)NC(=O)[C@H](Cc1ccc(OS(=O)(=O)O)cc1)NC(=O)[C@H](CC(=O)O)NC(=O)[C@H](Cc1c[nH]c2ccccc12)NC(=O)[C@H](C)NC(=O)CNC(=O)[C@@H]1CCC(=O)N1)C(=O)NCC(=O)NCC(=O)NCC(=O)N[C@@H](CCCNC(=N)N)C(=O)N[C@@H](Cc1ccccc1)C(N)=O [[Y^6S] Cragi-CCK1] ([pGlu]GAWD[sY]DYGLGGGRF-NH2)
Activation of Cragi-CCKR2 (in words) (Cragi-CCKR2; doses as high as 10^−5M, calcium assay in HEK293T): inactive; also recorded: No activation | Duration, Relaxation (R) (oyster hindgut; Peptide 10^−5M, no peptide 11,35 ± 0,85): 11,23 ± 0,60 min | Duration, Contraction (C) (oyster hindgut; Peptide 10^−5M, no peptide 20,18 ± 0,98): 21 ± 1,42 min | Duration, Period (P) (oyster hindgut; Peptide 10^−5M, no peptide 31,53 ± 1,45): 32,23 ± 1,53 min | Amplitude (A) (oyster hindgut; Peptide 10^−5M, no peptide 0,129 ± 0,019): 0,104 ± 0,021 g | Hindgut response (in words) (oyster hindgut; concentration up to 10^−5M): No response | EC50 (Cragi-CCKR1; [1]): 16.4 ± 0.1 nM

CC(C)C[C@H](NC(=O)CNC(=O)[C@H](Cc1ccc(OS(=O)(=O)O)cc1)NC(=O)[C@H](CC(=O)O)NC(=O)[C@H](Cc1ccc(O)cc1)NC(=O)[C@H](CC(=O)O)NC(=O)[C@H](Cc1c[nH]c2ccccc12)NC(=O)[C@H](C)NC(=O)CNC(=O)[C@@H]1CCC(=O)N1)C(=O)NCC(=O)NCC(=O)NCC(=O)N[C@@H](CCCNC(=N)N)C(=O)N[C@@H](Cc1ccccc1)C(N)=O [[Y^8S] Cragi-CCK1] ([pGlu]GAWDYD[sY]GLGGGRF-NH2)
EC50 (Cragi-CCKR2; [1]): 10 ± 1.9 nM | Potency relative to non-sulphated counterpart (Cragi-CCK1), Cragi-CCKR2 (Cragi-CCKR2; [3]): 50 times | Duration, Relaxation (R) (oyster hindgut; Peptide 10^−10M, no peptide 11,08 ± 2,27): 17,62 ± 5,27 min | Duration, Contraction (C) (oyster hindgut; Peptide 10^−10M, no peptide 18,58 ± 1,03): 37,13 ± 3,28 min | Duration, Period (P) (oyster hindgut; Peptide 10^−10M, no peptide 29,66 ± 2,22): 54,75 ± 1,97 min | Amplitude (A) (oyster hindgut; Peptide 10^−10M, no peptide 0,121 ± 0,025): 0,173 ± 0,023 g | Minimal threshold concentration inducing hindgut contraction (oyster hindgut): 10^−10 M | EC50 (Cragi-CCKR1; [1]): 2.29 ± 1.55 nM | Potency relative to non-sulphated counterpart (Cragi-CCK1), Cragi-CCKR1 (Cragi-CCKR1; [3]): 90 times

FDYGGGRW-NH2 [Cragi-CCK2]
EC50 (Cragi-CCKR2; values given in M): > 100000 nM | EC50 (Cragi-CCKR1; values given in M): > 100000 nM

FMRF-amide [reference compound]
Hindgut effect (in words) (oyster hindgut; concentration of 10^−7M): No effect

GALRF-amide [oyster GALRF-amide unrelated neuropeptide used as negative control, reference compound]
Calcium response of Cragi-CCKR2 to negative control peptide (Cragi-CCKR2; [4]): No response | Calcium response of Cragi-CCKR1 to negative control peptide (Cragi-CCKR1; [4]): No response

From PMC6219549, “Emergence of a cholecystokinin/sulfakinin signalling system in Lophotrochozoa” (Scientific Reports, 2018)
